According to PubChem BioAssay (NCI):
Values joined by “and” are separate entries in the source; they are usually repeats but may differ in a detail not shown here. Identical values can stand only once.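 Interpolation was linear, between the two tested concentrations surrounding the appropriate level; five concentrations were tested over 48 hours in 96-well plates. GI50 marks 50% less growth. TGI: total growth inhibition.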

Experiments:
Test in all cases: inhibition of tumour cell growth, NCI panel, 48 h
SK-MEL-5 melanoma = system: SK-MEL-5 melanoma
SF-295 CNS = system: SF-295 CNS
HS 578T breast = system: HS 578T breast
SNB-19 CNS = system: SNB-19 CNS
TK-10 renal = system: TK-10 renal
SR leukemia = system: SR leukemia
U251 CNS = system: U251 CNS
BT-549 breast = system: BT-549 breast
NCI-H522 lung = system: NCI-H522 lung
OVCAR-5 ovarian = system: OVCAR-5 ovarian

| Compound | GI50 (SK-MEL-5 melanoma) | TGI (SK-MEL-5 melanoma) | GI50 (SF-295 CNS) | TGI (SF-295 CNS) | GI50 (HS 578T breast) | TGI (HS 578T breast) | GI50 (SNB-19 CNS) | TGI (SNB-19 CNS) | GI50 (TK-10 renal) | TGI (TK-10 renal) | GI50 (SR leukemia) | TGI (SR leukemia) | GI50 (U251 CNS) | TGI (U251 CNS) | GI50 (BT-549 breast) | TGI (BT-549 breast) | GI50 (NCI-H522 lung) | TGI (NCI-H522 lung) | GI50 (OVCAR-5 ovarian) | TGI (OVCAR-5 ovarian) |
| --- | --- | --- | --- | --- | --- | --- | --- | --- | --- | --- | --- | --- | --- | --- | --- | --- | --- | --- | --- | --- |
| COc1ccc(COc2cc3oc(=O)c4cc(C(C)O)ccc4c3cc2OC)cc1 (centres undefined) | 12.1 µM | > 40.7 µM | 11.6 µM | 65.5 µM | 8.79 µM | > 67.4 µM | 16 µM | 99.3 µM | 17.4 µM | 62.6 µM | 49.7 µM | > 100 µM | 10.5 µM | > 71.6 µM | 10.1 µM | 49.4 µM | 10.1 µM | > 95.3 µM | 41.5 µM | > 100 µM |
| NC(=O)CC(N)c1nn[nH]n1 (centres undefined) |  | > 100 µM |  | > 100 µM |  | > 100 µM |  | > 100 µM |  | > 100 µM |  | > 100 µM |  | > 100 µM |  | > 100 µM |  | > 100 µM |  | > 100 µM |
| COc1ccc2c(c1)C(=O)c1c-2c(=O)n(CCCN(C)C)c2cc(OC)c(OC)cc12 | 86.1 µM | > 100 µM | 0.158 µM | 0.774 µM | 16.2 µM | 36.7 µM | 3.3 µM | 20.6 µM | 15.5 µM | 29.3 µM | 0.128 µM | 7.63 µM | 1.23 µM | 18.9 µM | 83.6 µM | > 100 µM | 4.69 µM | 21.6 µM | 20.3 µM | 35.7 µM |
| Cc1cc(O)c2c3c(ccc2c1)C(=O)c1c(O)cccc1C3=O |  | 1.4 µM |  | > 100 µM |  | > 100 µM |  | > 100 µM |  | > 100 µM |  | 26.5 µM |  | > 100 µM |  | > 100 µM |  | > 32.3 µM |  | > 100 µM |
| O=c1[nH]c2ccccc2n1C1CCN(CCCC(c2ccc(F)cc2)c2ccc(F)cc2)CC1 | 1.42 µM and 2.13 µM | 2.74 µM and 4.8 µM | 1.5 µM | 3.02 µM and 14.5 µM | 1.83 µM and 7.71 µM | 4.47 µM and 24.8 µM | 1.67 µM | 3.29 µM and 28.8 µM | 1.54 µM and 6.93 µM | 2.95 µM and 16.1 µM |  | 5.22 µM | 1.49 µM and 5.24 µM | 2.9 µM and 14.1 µM | 1.72 µM and 8.47 µM | 3.31 µM and 23.6 µM | 1.73 µM | 3.36 µM and 10.4 µM | 1.74 µM | 3.51 µM and 22.8 µM |
| CC(=O)N(O)c1ccc(/C=C/c2ccccc2)cc1 | 6.05 µM | > 100 µM | 0.362 µM | 2.78 µM | 3.62 µM | 68.8 µM | 1.88 µM | > 100 µM | 1.9 µM | 5.86 µM | 0.244 µM | > 100 µM | 1.23 µM | 3.59 µM | 2.59 µM | 20.5 µM | 3.58 µM | > 41.1 µM | 2.35 µM | 9.46 µM |
| CCn1ccnc1C(=O)/C=C/c1ccc(CC(=O)Nc2ccc(F)cc2)cc1 | 5.74 µM | > 16.7 µM | 4.41 µM | > 16.7 µM | 5.36 µM | > 16.7 µM | 3.58 µM | > 16.7 µM | 6.01 µM | > 16.7 µM | 0.529 µM | 11.1 µM | 1.88 µM | 7.94 µM | 2.94 µM | 7.03 µM | 3.92 µM | 10.2 µM | 4.97 µM | > 16.7 µM |
